We go through 20 molecules from PubChem BioAssay AID330 (DTP/NCI, 2004).

In the experiment the test system is P388 leukemia ip, CD2F1 mice, survival T/C. Briefly: NCI In Vivo Anticancer Drug Screen. Data for tumor model P388 Leukemia (intraperitoneal) in CD2F1 (CDF1) mice. Conditions: endpoint: median survival time, higher = longer survival. Summed up:
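Mice carrying the transplanted tumor received test compound or vehicle. Survival was recorded in each group, and the value is the treated-group measurement divided by that of the vehicle-treated control group.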

Where [1] appears, read: dose: 60.0 mg/kg/injection, schedule: Q01DX005 (ip), vehicle: saline with Tween-80.
The mark [2] stands for this setting: dose: 50.0 mg/kg/injection, schedule: Q01DX005 (ip), vehicle: saline.
Setting [3] is: dose: 100.0 mg/kg/injection, schedule: Q01DX005 (ip), vehicle: saline.
The mark [4] stands for this setting: dose: 50.0 mg/kg/injection, schedule: Q01DX009 (ip), vehicle: saline with Tween-80.
Where [5] appears, read: dose: 50.0 mg/kg/injection, schedule: Q01DX009 (ip), vehicle: saline.
The mark [6] stands for this setting: dose: 200.0 mg/kg/injection, schedule: Q01DX009 (ip), vehicle: saline with Tween-80.
Setting [7] is: dose: 50.0 mg/kg/injection, schedule: Q01DX005 (ip), vehicle: Klucel (hydroxypropylcellulose) (HPC).
The mark [8] stands for this setting: dose: 100.0 mg/kg/injection, schedule: Q01DX005 (ip), vehicle: Klucel (hydroxypropylcellulose) (HPC).
Setting [9] is: dose: 60.0 mg/kg/injection, schedule: Q01DX005 (ip), vehicle: saline.
The mark [10] stands for this setting: dose: 120.0 mg/kg/injection, schedule: Q01DX005 (ip), vehicle: saline.
Setting [11] is: dose: 240.0 mg/kg/injection, schedule: Q01DX005 (ip), vehicle: saline.
Setting [12] is: dose: 100.0 mg/kg/injection, schedule: Q01DX009 (ip), vehicle: saline with Tween-80.
The mark [13] stands for this setting: dose: 200.0 mg/kg/injection, schedule: Q01DX005 (ip), vehicle: Klucel (hydroxypropylcellulose) (HPC).

Where “and” joins values, the source holds several entries; their conditions need not be identical. Identical values can stand only once. Inconclusive results and toxic doses are left out.

As to `CCOC(=O)C1=C(c2ccccc2)N=c2ccccc2=S1C` (configuration not stated), the T/C reads like this: (dose: 15.0 mg/kg/injection, schedule: Q01DX005 (ip), vehicle: saline with Tween-80) 96 % of control; (dose: 30.0 mg/kg/injection, schedule: Q01DX005 (ip), vehicle: saline with Tween-80) 99 % of control; under setting [1], 98 % of control and 94 % of control.
As for `Cc1c2ccncc2c(CN(CCCl)CCCl)c2c3ccccc3n(C)c12`, the T/C by setting is: (dose: 20.0 mg/kg/injection, schedule: Q01DX005 (ip), vehicle: saline) 150 % of control and 160 % of control; under setting [2], 118 % of control; under setting [3], 182 % of control.
For the molecule `CCCC1CN2CCc3cc(OC)c(OC)cc3C2C/C1=C/C(=O)OCC` (configuration not stated), the T/C was 90 % of control (dose: 12.5 mg/kg/injection, schedule: Q01DX009 (ip), vehicle: saline); 92 % of control (dose: 25.0 mg/kg/injection, schedule: Q01DX009 (ip), vehicle: saline); 90 % of control under setting [4]; 96 % of control under setting [5]; 89 % of control under setting [6].
With `CCC/C(=N\NC(N)=NC)c1ccc2c(c1)Cc1ccccc1-2`, the T/C (dose: 50.0 mg/kg/injection, schedule: Q04DX002 (ip), vehicle: saline with Tween-80) was 106 % of control; the T/C (dose: 100.0 mg/kg/injection, schedule: Q04DX002 (ip), vehicle: saline with Tween-80) was 102 % of control; the T/C (dose: 200.0 mg/kg/injection, schedule: Q04DX002 (ip), vehicle: saline with Tween-80) is 104 % of control.
With `[Cl][Co][Cl].c1ccc2[nH]cnc2c1.c1ccc2[nH]cnc2c1`, the T/C was 111 % of control under setting [7] and 111 % of control under setting [8].
Regarding `CCCCCCCCCCCCCCCCN(C(C)C)S(=O)(=O)c1ccc(Cl)c([N+](=O)[O-])c1`, the T/C is 90 % of control (dose: 50.0 mg/kg/injection, schedule: Q04DX003 (ip), vehicle: saline sonified); 95 % of control (dose: 100.0 mg/kg/injection, schedule: Q04DX003 (ip), vehicle: saline sonified); 95 % of control (dose: 200.0 mg/kg/injection, schedule: Q04DX003 (ip), vehicle: saline sonified).
On to `COC(=O)C1=C/C=C\CN(CCC2OCCO2)/C=C\1C(=O)OC`, for which the T/C reads like this: (dose: 100.0 mg/kg/injection, schedule: Q01DX001 (ip), vehicle: alcohol) 99 % of control; (dose: 200.0 mg/kg/injection, schedule: Q01DX001 (ip), vehicle: alcohol) 100 % of control; (dose: 400.0 mg/kg/injection, schedule: Q01DX001 (ip), vehicle: alcohol) 100 % of control.
Consider `CC(=O)N1CCc2cc([N+](=O)[O-])ccc21`, for which the T/C is 99 % of control (dose: 50.0 mg/kg/injection, schedule: Q01DX009 (ip), vehicle: Klucel (hydroxypropylcellulose) (HPC)); 113 % of control (dose: 100.0 mg/kg/injection, schedule: Q01DX009 (ip), vehicle: Klucel (hydroxypropylcellulose) (HPC)); 100 % of control (dose: 200.0 mg/kg/injection, schedule: Q01DX009 (ip), vehicle: Klucel (hydroxypropylcellulose) (HPC)); 110 % of control (dose: 400.0 mg/kg/injection, schedule: Q01DX009 (ip), vehicle: Klucel (hydroxypropylcellulose) (HPC)).
As for `COc1ccc(C2=NN(c3ccccc3)C(=O)/C2=C(/SC)N2CC2)cc1`, the T/C (dose: 100.0 mg/kg/injection, schedule: Q04DX003 (ip), vehicle: Klucel (hydroxypropylcellulose) (HPC)) was 99 % of control; the T/C (dose: 200.0 mg/kg/injection, schedule: Q04DX003 (ip), vehicle: Klucel (hydroxypropylcellulose) (HPC)) is 91 % of control; the T/C (dose: 400.0 mg/kg/injection, schedule: Q04DX003 (ip), vehicle: Klucel (hydroxypropylcellulose) (HPC)) is 102 % of control.
Consider `CC(C)=CCCC(=O)C(c1nc2nnc(N)n2[nH]c1=O)c1nc2nnc(N)n2[nH]c1=O`, for which the T/C under setting [9] is 104 % of control, the T/C under setting [10] was 104 % of control and the T/C under setting [11] is 95 % of control.
Take `COc1cccc(C(=O)c2ccncc2C)c1OC`: the T/C (dose: 12.5 mg/kg/injection, schedule: Q01DX009 (ip), vehicle: water) is 103 % of control; the T/C (dose: 25.0 mg/kg/injection, schedule: Q01DX009 (ip), vehicle: water) is 102 % of control; the T/C (dose: 50.0 mg/kg/injection, schedule: Q01DX009 (ip), vehicle: water) is 100 % of control; the T/C (dose: 100.0 mg/kg/injection, schedule: Q01DX009 (ip), vehicle: water) was 97 % of control; the T/C (dose: 200.0 mg/kg/injection, schedule: Q01DX009 (ip), vehicle: water) is 102 % of control.
`CCOC(=O)C(Cc1ccc(O)cc1)NC(=O)c1cc2c(cn1)[nH]c1ccccc12` (configuration not stated): the T/C by setting is: under setting [1], 101 % of control; (dose: 120.0 mg/kg/injection, schedule: Q01DX005 (ip), vehicle: saline with Tween-80) 117 % of control.
On to `CNC(=O)OC/C=C/c1ccccc1`, for which the T/C runs as follows: under setting [4], 99 % of control; under setting [12], 99 % of control; under setting [6], 92 % of control.
In the case of `NC(CCCCNC1CCCCC1)C(=O)O` (configuration not stated), the T/C runs as follows: under setting [12], 106 % of control; under setting [6], 105 % of control; (dose: 400.0 mg/kg/injection, schedule: Q01DX009 (ip), vehicle: saline with Tween-80) 100 % of control.
In the case of `CCOC(=O)c1cnc2c(C(F)(F)F)cccc2c1Nc1ccc2c(c1)OCO2`, the T/C is, setting by setting: (dose: 60.0 mg/kg/injection, schedule: Q01DX005 (ip), vehicle: Klucel + Tween-80) 100 % of control; (dose: 120.0 mg/kg/injection, schedule: Q01DX005 (ip), vehicle: Klucel + Tween-80) 103 % of control; (dose: 240.0 mg/kg/injection, schedule: Q01DX005 (ip), vehicle: Klucel + Tween-80) 97 % of control.
On to `O=c1[nH]c(=O)c2[nH]c(=O)[nH]c(=O)c2[nH]1`, for which the T/C is 99 % of control under setting [7], 96 % of control under setting [8] and 103 % of control under setting [13].
As for `O=C(O)CC(SCP(=O)(O)O)C(=O)O` (configuration not stated), the T/C by setting is: (dose: 30.0 mg/kg/injection, schedule: Q01DX005 (ip), vehicle: saline) 98 % of control; under setting [9], 91 % of control; under setting [10], 89 % of control; under setting [11], 93 % of control and 97 % of control.
Take `O=C(NC(=S)c1ccco1)NS(=O)(=O)c1ccc(Cl)cc1`: the T/C (dose: 25.0 mg/kg/injection, schedule: Q01DX001 (ip), vehicle: saline with Tween-80) is 100 % of control; the T/C (dose: 50.0 mg/kg/injection, schedule: Q01DX001 (ip), vehicle: saline with Tween-80) is 95 % of control; the T/C (dose: 100.0 mg/kg/injection, schedule: Q01DX001 (ip), vehicle: saline with Tween-80) was 96 % of control.
Consider `CCSSc1ccccc1C(=O)O`, for which the T/C is, setting by setting: under setting [7], 102 % of control; under setting [8], 109 % of control; under setting [13], 112 % of control.
For `NCCCC(N)(C(=O)O)C(F)F` (configuration not stated), the T/C is, setting by setting: under setting [2], 106 % of control; (dose: 50.0 mg/kg/injection, schedule: Q01DX009 (ip), vehicle: distilled water + alcohol) 112 % of control; under setting [5], 87 % of control; under setting [3], 103 % of control; (dose: 100.0 mg/kg/injection, schedule: Q01DX009 (ip), vehicle: distilled water + alcohol) 112 % of control; (dose: 100.0 mg/kg/injection, schedule: Q01DX009 (ip), vehicle: saline) 103 % of control. For the same molecule, the T/C by setting is: (dose: 200.0 mg/kg/injection, schedule: Q01DX005 (ip), vehicle: saline) 103 % of control; (dose: 200.0 mg/kg/injection, schedule: Q01DX009 (ip), vehicle: distilled water + alcohol) 115 % of control; (dose: 200.0 mg/kg/injection, schedule: Q01DX009 (ip), vehicle: saline) 110 % of control; (dose: 400.0 mg/kg/injection, schedule: Q01DX009 (ip), vehicle: distilled water + alcohol) 119 % of control; (dose: 800.0 mg/kg/injection, schedule: Q01DX009 (ip), vehicle: distilled water + alcohol) 111 % of control.
